The results in this text go back to ChEMBL document CHEMBL1140557, “SAR studies of 1,5-diarylpyrazole-based CCK1 receptor antagonists” (Bioorg Med Chem Lett, 2007).

The nature of data set [1]: Oral bioavailability in rat at 2 umol/kg. The class given is ADME, organism-based. Conditions: in vivo.
Data set [2] is described as follows: Half life in rat. The data set is classed as ADME, organism-based. Conditions: in vivo.

With `COc1ccc(-n2nc(C[C@H](C(=O)O)c3cccc(C)c3)cc2-c2ccc(Cl)c(Cl)c2)cc1`, in data set [1], the bioavailability worked out at 100%. This compound also had a half-life in data set [2] of 5.6 h.
